Experimental findings from patent EP4813977A1, “NOVEL COMPOUND AND USE THEREOF” (Protier Biotech Inc., priority 2023, dated 2025) are described below.

Test [1] deals with T-cell leukemia cell line Jurkat. The experiment in a line: Cell viability assay (Cell Counting Kit-8), Jurkat. The class given is cell-based. The note with it: Homo sapiens, 72 hours, CCK-8, absorbance 450 nm. How it is done:
To evaluate the cytotoxicity of the compounds synthesized in the Preparation Examples against cancer cells, a cell viability assay following treatment with the synthesized compounds was performed using a T-cell leukemia cell line Jurkat (KCLB, Cat# 40152), a human acute monocytic leukemia cell line MV-4-11 (ATCC, Cat# CRL-9591), and a human multiple myeloma cell line MM.1S (ATCC, Cat# CRL-2974).
As a culture medium for the cell lines, an RPMI medium containing 10 % heat-inactivated FBS and 1 % penicillin/streptomycin (P/S) antibiotics was used. The culture medium was stored refrigerated and warmed in a 37 °C water bath before use. Each cell line was used for the test after a stabilization period of at least 2 weeks after thawing, and cell culture was performed based on information provided by the cell line manufacturer regarding the thawing and subculture conditions.
The Jurkat, MV-4-11, or MM.1S cell line was seeded in a 96-well plate at a density of 1 × 10^4 cells/well and incubated in a 37 °C CO2 incubator overnight. After incubation, a prepared test compound was applied to each cell line, and the cells were incubated in a 37 °C CO2 incubator for 72 hours. After 72 hours of incubation, a Cell Counting Kit-8 (Dojindo, Cat# CK04-20) reagent was added, and the cells were incubated in a 37 °C CO2 incubator. Then, the absorbance was measured at 450 nm using a SpectraMax M3 Microplate Reader (N=2, duplicate measurement). The evaluation concentrations for evaluating the cytotoxicity of the compounds were 10 points: 100 µM, 20 µM, 4 µM, 0.8 µM, 0.16 µM, 0.032 µM, 0.0064 µM, 0.00128 µM, 0.000256 µM, and 0 µM, and the test was performed at 2 wells/concentration point (n=2). A GI50 was derived using a GraphPad Prism program.
In general terms: Formazan colour is commonly taken as a measure of viable cells.

Another test has as its target T1, Cereblon (CRBN) protein (Homo sapiens, UniProt Q96SW2).
T1 construct: purchased Eurofins (E3scan service); host or cells: HEK-293
As to the kind of experiment: CRBN binding affinity, E3scan (Eurofins) competition binding with qPCR read-out. The note with it: lower % Ctrl = stronger binding, DMSO = 100 % Ctrl, lenalidomide = 0 % Ctrl. How it is done: Specifically, CRBN was produced using a HEK-293 cell line and labeled with DNA for qPCR detection. Streptavidin-coated magnetic beads were treated with a biotinylated small-molecule ligand at room temperature for 30 minutes to generate an affinity resin for E3scan analysis. The liganded beads were blocked with excess biotin and washed with a blocking buffer (SeaBlock (Pierce), 1 % BSA, 0.05 % Tween 20, 1 mM DTT) to remove unbound ligands and prevent non-specific binding. […] The test compound was prepared as a 100× stock in 100 % DMSO and diluted directly into the assay solution. All reactions were performed in a polypropylene 384-well plate with a final reaction volume of 0.02 mL. […] The CRBN concentration in the eluate was measured by qPCR. […] A lower '% Ctrl' indicates a stronger binding affinity. […] ((test compound signal−positive control signal)/(negative control signal−positive control signal)) × 100 [formula]
Background: Quantitative PCR measures a nucleic acid by following its amplification.

What is called GI50 is the concentration at which growth is held to half of that of the control. Higher therefore signals lower sensitivity of the cells. In the case of `O=C1CCC(N2Cc3cc(C(=O)c4ccc(F)cc4)ccc3C2=O)C(=O)N1` (stereo not shown) [Compound 40, 3-(5-(4-fluorobenzoyl)-1-oxoisoindolin-2-yl)piperidine-2,6-dione], the GI50 in test [1] is 0.1 to 1 µM. For the compound `O=C1CCC(N2Cc3cc(C(=O)c4ccccn4)ccc3C2=O)C(=O)N1` (stereo not shown) [Compound 12, 3-(1-oxo-5-picolinoylisoindelin-2-yi)piperidine-2,6-dione], on Cereblon (CRBN) protein, the “CRBN binding affinity (% Ctrl @ 5µM)” value was “A (0 ≤ '% Ctrl' < 0.1)”.

For `O=C1CCC(N2Cc3cc(C(=O)c4c[nH]c5ccc(-c6ccccc6)cc45)ccc3C2=O)C(=O)N1` (stereo not shown) [Compound 24, 3-(1-oxo-5-(5-phenyl-1H-indole-3-carbonyl)isoindolin-2-yl)piperidine-2,6-dione], the “CRBN binding affinity (% Ctrl @ 5µM)” value at Cereblon (CRBN) protein is recorded as “D (10 ≤ '% Ctrl' < 35)”. In the case of `O=C1CCC(N2Cc3cc(C(=O)c4ccc(-c5ccccc5)[nH]4)ccc3C2=O)C(=O)N1` (stereo not shown) [Compound 28, 3-(1-oxo-5-(5-phenyl-1H-pyrrole-2-carbonyl)isoindolin-2-yl)piperidine-2,6-dione], at Cereblon (CRBN) protein, the “CRBN binding affinity (% Ctrl @ 5µM)” value was “C (1 ≤ % Ctrl' < 10)”. In test [1], this compound returned a GI50 of 0.1 to 1 µM. With `O=C1CCC(N2Cc3cc(C(=O)n4ncc5ccccc54)ccc3C2=O)C(=O)N1` (stereo not shown) [Compound 6, 3-(5-(1H-indazole-1-carbonyl)-1-oxoisoindolin-2-yl)piperidine-2,6-dione], on Cereblon (CRBN) protein, the “CRBN binding affinity (% Ctrl @ 5µM)” value is recorded as “A (0 ≤ '% Ctrl' < 0.1)”. The compound `O=C1CCC(N2Cc3cc(C(=O)c4cccc5ccccc45)ccc3C2=O)C(=O)N1` (stereo not shown) [Compound 43, 3-(5-(1-naphthoyl)-1-oxoisoindolin-2-yl)piperidine-2,6-dione] had a GI50 in test [1] of 1 to 10 µM. For `O=C1CCC(N2Cc3cc(C(=O)c4cn(-c5ccccc5)c5ccc(-c6ccccc6)cc45)ccc3C2=O)C(=O)N1` (stereo not shown) [Compound 25, 3-(5-(1,5-diphenyl-1H-indole-3-carbonyl)-1-oxoisoindolin-2-yl)piperidine-2,6-dione], the “CRBN binding affinity (% Ctrl @ 5µM)” value on Cereblon (CRBN) protein was “D (10 ≤ '% Ctrl' < 35)”. Consider `O=C1CCC(N2Cc3cc(C(=O)N4Cc5ccccc5C4)ccc3C2=O)C(=O)N1` (stereo not shown) [Compound 36, 3-(5-(isoindoline-2-carbonyl)-1-oxoisoindolin-2-yl)piperidine-2,6-dione], for which the “CRBN binding affinity (% Ctrl @ 5µM)” value on Cereblon (CRBN) protein is “A (0 ≤ '% Ctrl' < 0.1)”. In test [1], the GI50 is no more than 0.1 µM. Regarding `O=C1CCC(N2Cc3cc(C(=O)c4ccccc4)ccc3C2=O)C(=O)N1` (stereo not shown) [Compound 1, 3-(5-benzoyl-1-oxoisoindolin-2-yl)piperidine-2,6-dione], the “CRBN binding affinity (% Ctrl @ 5µM)” value at Cereblon (CRBN) protein was “C (1 ≤ % Ctrl' < 10)”. Besides, in test [1], the GI50 lay within 0.1 to 1 µM. `Cc1cccc(C(=O)c2ccc3c(c2)CN(C2CCC(=O)NC2=O)C3=O)c1` (stereo not shown) [Compound 61, 3-(5-(3-methylbenzoyl)-1-oxoisoindolin-2-yl)piperidine-2,6-dione] yielded a GI50 in test [1] of no more than 0.1 µM. On the same count and under the same terms, the figure for `O=C1CCC(N2Cc3cc(C(=O)c4ccc[nH]4)ccc3C2=O)C(=O)N1` (stereo not shown) [Compound 73, 3-(1-oxo-5-(1H-pyrrole-2-carbonyl)isoindolin-2-yl)piperidine-2,6-dione] is no more than 0.1 µM. Consider `O=C1CCC(N2Cc3nc(C(=O)c4ccccc4)ccc3C2=O)C(=O)N1` (stereo not shown) [Compound 5, 3-(2-benzoyl-5-oxo-5,7-dihydro-6H-pyrrolo[3.4-b]pyridin-6-yl)piperidine-2,6-dione], for which the “CRBN binding affinity (% Ctrl @ 5µM)” value at Cereblon (CRBN) protein is reported as “C (1 ≤ % Ctrl' < 10)”. In turn, `O=C1CCC(N2Cc3cc(C(=O)c4ccc5ncsc5c4)ccc3C2=O)C(=O)N1` (stereo not shown) [Compound 76, 3-(5-(benzo[d]thiazole-6-carbonyl)-1-oxoisoindolin-2-yl)piperidine-2,6-dione] came in with a GI50 in test [1] of no more than 0.1 µM. As to `O=C1CCC(N2Cc3cc(C(=O)c4ccc(C(F)(F)F)cc4)ccc3C2=O)C(=O)N1` (stereo not shown) [Compound 50, 3-(1-oxo-5-(4-(trifluoromethyl)benzoyl)isoindolin-2-yl)piperidine-2,6-dione], the GI50 in test [1] lay in the range of 0.1 to 1 µM. For the compound `O=C1CCC(N2Cc3cc(C(=O)c4ccc(N5CCCCC5)cc4)ccc3C2=O)C(=O)N1` (stereo not shown) [Compound 41, 3-(1-oxo-5-(4-(piperidin-1-yl)benzoyl)isoindolin-2-yl)piperidine-2,6-dione], the GI50 in test [1] fell in the range of 0.1 to 1 µM. Turning to `O=C1CCC(N2Cc3cc(C(=O)c4ccc(Cl)cc4)ccc3C2=O)C(=O)N1` (stereo not shown) [Compound 48, 3-(5-(4-chlorobenzoyl)-1-oxoisoindolin-2-yl)piperidine-2,6-dione], in test [1], the GI50 is 0.1 to 1 µM. For the compound `O=C1CCC(N2Cc3cc(C(=O)c4cccc(Nc5ccccc5)c4)ccc3C2=O)C(=O)N1` (stereo not shown) [Compound 16, 3-(1-oxo-5-(3-(phenylamino)benzoyl)isoindolin-2-yl)piperidine-2,6-dione], on Cereblon (CRBN) protein, the “CRBN binding affinity (% Ctrl @ 5µM)” value is reported as “A (0 ≤ '% Ctrl' < 0.1)”. In test [1], the GI50 lay in the range of 1 to 10 µM. In the case of `O=C1CCC(N2C(=O)c3ccc(C(=O)c4cc5ccccc5[nH]4)cc3C2=O)C(=O)N1` (stereo not shown) [Compound 10, 2-(2,6-dioxopiperidin-3-yl)-5-(1H-indole-2-carbonyl)isoindoline-1,3-dione], at Cereblon (CRBN) protein, the “CRBN binding affinity (% Ctrl @ 5µM)” value is reported as “C (1 ≤ % Ctrl' < 10)”. Also, the GI50 in test [1] was 1 to 10 µM.

In test [1], `O=C1CCC(N2Cc3cc(C(=O)c4ccc(OCc5ccccc5)cc4)ccc3C2=O)C(=O)N1` (stereo not shown) [Compound 53, 3-(5-(4-(benzyloxy)benzoyl)-1-oxoisoindolin-2-yl)piperidine-2,6-dione] registered a GI50 of 0.1 to 1 µM.

Take `O=C1CCC(N2Cc3cc(C(=O)c4cc(-c5ccccc5)cs4)ccc3C2=O)C(=O)N1` (stereo not shown) [Compound 30, 3-(1-oxo-5-(4-phenylthiophene-2-carbonyl)isoindolin-2-yl)piperidine-2,6-dione]: on Cereblon (CRBN) protein, the “CRBN binding affinity (% Ctrl @ 5µM)” value is listed as “A (0 ≤ '% Ctrl' < 0.1)”. This compound showed a concentration for 50% growth inhibition (GI50) in test [1] of 0.1 to 1 µM.

In the case of `O=C1CCC(N2Cc3cc(C(=O)c4cccc(-c5ccccc5)c4)ccc3C2=O)C(=O)N1` (stereo not shown) [Compound 26, 3-(5-([1,1'-biphenyl]-3-carbonyl)-1-oxoisoindolin-2-yl)piperidine-2,6-dione], the “CRBN binding affinity (% Ctrl @ 5µM)” value on Cereblon (CRBN) protein is “A (0 ≤ '% Ctrl' < 0.1)”. The compound further came in with a GI50 in test [1] of 1 to 10 µM. The compound `O=C1CCC(N2Cc3cc(C(=O)c4cn(Cc5ccccc5)c5ccccc45)ccc3C2=O)C(=O)N1` (stereo not shown) [Compound 32, 3-(5-(1-benzyl-1H-indole-3-carbonyl)-1-oxoisoindolin-2-yl)piperidine-2.6-dione] registered a GI50 in test [1] of 0.1 to 1 µM. Turning to `O=C1CCC(N2Cc3cc(C(=O)C4CCN(Cc5ccccc5)CC4)ccc3C2=O)C(=O)N1` (stereo not shown) [Compound 11, 3-(5-(1-benzylpiperidine-4-carbonyl)-1-ox.oisoindolin-2-yl)piperidine-2,6-dione], the “CRBN binding affinity (% Ctrl @ 5µM)” value at Cereblon (CRBN) protein is listed as “A (0 ≤ '% Ctrl' < 0.1)”. For `O=C1CCC(N2Cc3cc(C(=O)C4CCCC4)ccc3C2=O)C(=O)N1` (stereo not shown) [Compound 39, 3-(5-(cyclopentanecarbonyl)-1-oxoisoindolin-2-yl)piperidine-2,6-dione], the GI50 in test [1] was in the range of 1 to 10 µM.

In turn, `O=C1CCC(N2Cc3cc(C(=O)c4ccc(OC(F)(F)F)cc4)ccc3C2=O)C(=O)N1` (stereo not shown) [Compound 45, 3-(1-oxo-5-(4-(trifluoromethoxy)benzoyl)isoindolin-2-yl)piperidine-2,6-dione] displayed a GI50 in test [1] of 0.1 to 1 µM. In test [1], `COc1ccc(C(=O)c2ccc3c(c2)CN(C2CCC(=O)NC2=O)C3=O)cc1` (stereo not shown) [Compound 51, 3-(5-(4-methoxybenzoyl)-1-oxoisoindolin-2-yl)piperidine-2,6-dione] yielded a GI50 of 0.1 to 1 µM.

With `Nc1ccc(C(=O)c2ccc3c(c2)CN(C2CCC(=O)NC2=O)C3=O)cc1` (stereo not shown) [Compound 64, 3-(5-(4-aminobenzoyl)-1-oxoisoindolin-2-yl)piperidine-2,6-dione], the GI50 in test [1] fell in the range of 0.1 to 1 µM. Turning to `O=C1CCC(N2Cc3cc(C(=O)N4CCCC4)ccc3C2=O)C(=O)N1` (stereo not shown) [Compound 7, 3-(1-oxo-5-(pyrrolidine-1-carbonyl)isoindolin-2-yl)piperidine-2,6-dione], the “CRBN binding affinity (% Ctrl @ 5µM)” value at Cereblon (CRBN) protein was “A (0 ≤ '% Ctrl' < 0.1)”.

The compound `O=C1CCC(N2Cc3cc(C(=O)c4c[nH]c5ccc(Cl)cc45)ccc3C2=O)C(=O)N1` (stereo not shown) [Compound 8, 3-(5-(5-chloro-1H-indole-3-carbonyl)-1-oxoisoindolin-2-yl)piperidine-2,6-dione] returned a GI50 in test [1] of no more than 0.1 µM. Consider `Cc1ccc(C(=O)c2ccc3c(c2)CN(C2CCC(=O)NC2=O)C3=O)cc1` (stereo not shown) [Compound 54, 3-(5-(4-methylbenzoyl)-1-oxoisoindolin-2-yl)piperidine-2,6-dione], for which the GI50 in test [1] was in the range of 0.1 to 1 µM.
